Experimental data from US11085022B2 (priority 2014, dated 2021).

What was measured:
[1] = In-vivo distribution and ear targeting in ear swelling model mice; settings: male, mouse, 15 mg/kg
Description: Ear swelling mouse model: Round pieces of filter paper that were 7 mm in diameter and soaked with dimethyl benzene were tightly attached for 15 s to the right ears of clean-grade male mice weighed 18-22 g.
(§1) 72 mice with inflammation were randomized to 2 groups, each group having 36 animals. Before administration, the mice were fasted, but allowed to free access to water overnight. […] 0.167 h, 0.5 h, 1 h, 2 h, 4 h, 8 h, 12 h, 24 h, 48 h, 72 h, 96 h, and 120 h after administration, the eyeballs were removed to collect the blood, and then the mice were sacrificed. The heart, liver, spleen, kidney, and ear tissues were removed, washed with physiological saline, and weighed after the residual physiological saline was aspirated off with filter paper.
(§2) The tissue samples (heart, liver, spleen, kidney, and ear) from the mice with inflammation were weighed, placed in a blood collection tube, added with 2 mL physiological saline, and dispersed by a tissue homogenizer at a high speed, to give a tissue homogenate. 200 μL acetonitrile was added to 200 μL of each tissue homogenate, vortexed for 5 min, and centrifuged for 10 min at 10000×g.
The ear targeting efficiency (Te) refers to the ratio of AUCs of the same preparation in the ear and in other tissues. […]

[2] = system: ear swelling model mice; assay: Degree of ear swelling in ear swelling model mice; assay type: in vivo; settings: 15 mg/kg; compared with the physiological saline group; difference in the weight of the ears
Description: 48 inflammation model mice were randomized to 4 groups, each group having 12 animals. […] A control group having 12 mice with primary tumor was also set. […] All the animals were administered at days 1, 2, 3, 4, 6, 8, and 10 after surgery, and a total of 7 administrations were presented. Groups given with the neutrophil granulocytes of the same density and the physiological saline of the same volume were also set and used as a blank control. The mice were administrated for 3 consecutive days, and then sacrificed by cervical vertebra dislocation after the 3 administrations. Round specimens were punched from the same portion of the left and the right ears by a 7 mm punch and weighed on an analytical balance. The degree of ear swelling was indicated by the difference in the weight of the ears, and the anti-inflammatory effects of the drugs were compared, as shown in FIG. 15.

[3] = In-vivo distribution and paw targeting in adjuvant arthritis model mice; settings: mouse; for concentration at 0.5 h / concentration at 1 h / concentration at 2 h / concentration at 4 h / concentration at 8 h / concentration at 12 h: 15 mg/kg, iv ibuprofen 15 mg/kg
Description: (§3) Adjuvant arthritis mouse model: The BCG vaccine was inactivated for 1 hr in a water bath at 80° C., and ground and mixed fully with autoclaved paraffin, to prepare a 10 mg/ml complete Freund adjuvant (CFA). 0.1 ml CFA was intracutaneously injected into the metatarsal in the right rear foot of the mice for inflammation induction.
as §1, with “the metatarsal tissue in the right rear foot” for “ear tissues”
as §2, with “metatarsal in the right rear foot)” for “ear)”
The paw targeting efficiency (Te) refers to the ratio of AUCs of the same preparation in the inflammatory site, that is, the paw, and in other tissues. […] The larger the Te is, the higher the selectivity of the preparation for the non-specific inflammatory site (the metatarsal in the right rear foot) will be, as compared with the selectivity for other comparative tissues.

[4] = system: adjuvant arthritis model mice; assay: Osteoarthritis index score in adjuvant arthritis model mice; assay type: in vivo; settings: 15 mg/kg, 7 administrations; compared with the physiological saline group
Description: as §3

[5] = system: Streptococcus pneumoniae; assay: Survival time of streptococcal pneumonia model mice; assay type: in vivo; settings: 10 mg/kg, 7 administrations
Description: 48 inflammation model mice were randomized to 4 groups, each group having 12 animals. […] All the animals were administered at days 1, 2, 3, 4, 6, 8, and 10 after surgery, and a total of 7 administrations were presented. Groups given with the neutrophil granulocytes of the same density and the physiological saline of the same volume were also set and used as a blank control.

With `CC(C)Cc1ccc(C(C)C(=O)O)cc1` (centres unmarked) [ibuprofen] the concentration at 1 h [1] was 3990 ng/g, the “degree of ear swelling” value [2] was “no obvious improvement” and the “organ(s) with the largest distribution” value [3] was “liver”. It also gave a concentration at 0.5 h ([3]; Distribution in Heart) of 6350 ng/g, a concentration at 1 h ([3]; Distribution in Heart) of 4240 ng/g and a concentration at 2 h ([3]; Distribution in Heart) of 2990 ng/g. It also gave a concentration at 4 h ([3]; Distribution in Heart) of 1870 ng/g, a concentration at 8 h ([3]; Distribution in Heart) of 550 ng/g and a concentration at 12 h ([3]; Distribution in Heart) of 340 ng/g. It also gave a concentration at 0.5 h ([3]; Distribution in Kidney) of 2790 ng/g, a concentration at 1 h ([3]; Distribution in Kidney) of 3900 ng/g and a concentration at 2 h ([3]; Distribution in Kidney) of 2680 ng/g. The concentration at 4 h ([3]; Distribution in Kidney) was 1910 ng/g, the concentration at 8 h ([3]; Distribution in Kidney) was 620 ng/g and the concentration at 12 h ([3]; Distribution in Kidney) was 450 ng/g. The concentration at 0.5 h ([3]; Distribution in Liver) was 11900 ng/g, the concentration at 1 h ([3]; Distribution in Liver) was 10000 ng/g and the concentration at 2 h ([3]; Distribution in Liver) was 8320 ng/g. For the same compound, the concentration at 4 h ([3]; Distribution in Liver) was 7370 ng/g, the concentration at 8 h ([3]; Distribution in Liver) was 6330 ng/g and the concentration at 12 h ([3]; Distribution in Liver) was 2000 ng/g. For the same compound, the concentration at 0.5 h ([3]; Distribution in Spleen) was 6010 ng/g, the concentration at 1 h ([3]; Distribution in Spleen) was 3990 ng/g and the concentration at 2 h ([3]; Distribution in Spleen) was 2420 ng/g. It also gave a concentration at 4 h ([3]; Distribution in Spleen) of 1980 ng/g, a concentration at 8 h ([3]; Distribution in Spleen) of 1210 ng/g and a concentration at 12 h ([3]; Distribution in Spleen) of 670 ng/g. For the same compound, the concentration at 0.5 h ([3]; Distribution in paw) was 430 ng/g, the concentration at 1 h ([3]; Distribution in paw) was 370 ng/g and the concentration at 2 h ([3]; Distribution in paw) was 210 ng/g. For the same compound, the “time at which the peak score occurs” value [4] was “prolonged somewhat”.
With `C[C@H]1COc2c(N3CCN(C)CC3)c(F)cc3c(=O)c(C(=O)O)cn1c23` [levofloxacin] the survival time [5] was “about 21 days”.
